Assay results as given in patent EP1618784A1, “AQUEOUS AGRICULTURAL-CHEMICAL SUSPENSION COMPOSITION” (KUMIAI CHEMICAL INDUSTRY CO., LTD., priority 2003, dated 2004).
Structures can show the parent of a compound that is named as a salt. Where two headings read alike, the source gives them in different places.

Columns and labels:
[1] = cited from earlier work
[2] = Solubility of the agrochemically active ingredient in the aqueous solution of water-soluble compound (B); type: physicochemical
Procedure: While the method for measuring the solubility of the agrochemically active ingredient as the component (A) in the aqueous solution of the water-soluble compound as the component (B) is not particularly limitative, the method contains, for example, adding an excess amount of the agrochemically active ingredient in an aqueous solution in which given quantities of the water-soluble compound are dissolved in water, filtering the solution with a membrane filter after stirring at room temperature for several hours, and analyzing the concentration in the filtrate according to an analysis method of the respective agrochemically active ingredients to calculate the solubility. The concentrations of the water-soluble compounds for allowing the solubility of the respective agrochemically active ingredients to be smaller than 2 g/100 ml are determined in the invention by preparing aqueous solutions with different concentrations of variety of the component (B) such as an inorganic acid, the specified organic acid and alkali metal salt and ammonium salt thereof and by measuring the solubility of the agrochemically active ingredient in each aqueous solution.

In the case of `COC(=O)NS(=O)(=O)c1ccc(N)cc1.[Ca]` [asulam-calcium, calcium methyl sulfanilylcarbamate], the solubility in water ([1]; 20 °C, pure water) is given as 20 g/100 ml.
For `COc1cc(OC)nc(Sc2cccc(Cl)c2C(=O)[O-])n1.[Na+]` [pyrithiobac-sodium, sodium 2-chloro-6-(4,6-dimethoxypyrimidin-2-ylthio)benzoate], the solubility in water ([1]; 20 °C, at pH 5) is given as 26.4 g/100 ml.
In the case of `Cc1cc(Cl)ccc1OCC(=O)[O-].[Na+]` [MCPA-sodium, sodium (4-chloro-2-methylphenoxy)acetate], the solubility in water ([1]; water) is listed as 27 g/100 ml.
For `Oc1cccc2cccnc12` [8-hydroxyquinoline sulfate, bis(8-hydroxyquinolinium)sulfate], the solubility in water ([1]; 20 °C, pure water) is listed as 30 g/100 ml.
For `COc1nn(C(=O)NS(=O)(=O)c2ccccc2OC(F)(F)F)c(=O)n1C` [flucarbazone-sodium, 4,5-dihydro-3-methoxy-4-methyl-5-oxo-N-[(2-(trifluoromethoxy)phenylsulfonyl]-1 H-1,2,4-triazole-1-carboxyamidesodium salt], the solubility ([2]; aqueous acetic acid/sodium acetate, 0.23 part acetic acid and 2.8 parts sodium acetate in 73.77 parts water (Example 5)) is given as 11000 µg/mL and the solubility in water ([1]; 20 °C, pure water) is given as 4.4 g/100 ml.
For `CN/C(=N/CC1CCOC1)N[N+](=O)[O-]` (racemic) [dinotefuran, (EZ)-(RS)-1-methyl-2-nitro-3-(tetrahydro-3-furylmethyl)guanidine], the solubility in water ([1]; 20 °C, pure water) is given as 5.43 g/100 ml.
For `CCc1c(C(=O)[O-])c(=O)cnn1-c1ccc(Cl)cc1.[K+]` [clofencet-potassium, potassium 2-(4-chlorophenyl)-3-ethyl-2,5-dihydro-5-oxopyridazine-4-carboxylate], the solubility in water ([1]; 20 °C, pure water) is listed as “at least 65.5 g/100 ml”.
In the case of `COC(=O)c1ccc(C(F)(F)F)nc1S(=O)(=O)NC(=O)Nc1nc(OC)cc(OC)n1.[Na]` [flupyrsulfuron-methyl-sodium, methyl 2-(4,6-dimethoxypyrimidine-2-ylcarbamoylsulfamoyl)-6-trifluoromethylnicotinate monosodium salt], the solubility in water ([1]; 20 °C, pure water) is listed as 6.3 g/100 ml.
`COc1cc(OC)nc(Oc2cccc(Oc3nc(OC)cc(OC)n3)c2C(=O)[O-])n1.[Na+]` [bispyribac-sodium, sodium 2,6-bis(4,6-dimethoxypyrimidin-2-yloxy)benzoate] showed a solubility ([2]; aqueous ammonium hydrogencarbonate, 3.1 parts ammonium hydrogencarbonate in 75.4 parts water (Example 4)) of 9000 µg/mL, a solubility ([2]; aqueous sodium chloride, 3.1 parts sodium chloride in 75.4 parts water (Example 3)) of 6000 µg/mL and a solubility ([2]; aqueous sodium hydrogencarbonate/sodium carbonate, 1.4 parts sodium hydrogencarbonate and 0.16 part sodium carbonate in 76.94 parts water (Comparative Example 2)) of 30000 µg/mL. For the same compound, the solubility ([2]; aqueous sodium hydrogencarbonate/sodium carbonate, 1.6 parts sodium hydrogencarbonate and 0.18 part sodium carbonate in 46.77 parts water (Example 1)) was 14000 µg/mL, the solubility ([2]; aqueous sodium hydrogencarbonate/sodium carbonate, 3.9 parts sodium hydrogencarbonate and 0.44 part sodium carbonate in 74.16 parts water (Example 2)) was 4000 µg/mL and the solubility in water ([1]; 20 °C, pure water) was 7.3 g/100 ml.
